Experimental data published in patent US20020177120A1, “ASSAYS FOR APOTOSIS MODULATORS” (priority 1999, published 2002).

Tests used:
Format in all cases: cell-based, human
caspase-3 [1] = assay: Inducibility and kinetics of apoptosis in U-138 cells (caspase-3 activity, inter-nucleosomal DNA fragmentation)
Description: DNA Fragmentation ELISA: Apoptosis-induced inter-nucleosomal fragmentation of chromosomal DNA was quantified using the “Cell Death Detection ELISA^PLUS” (Boehringer Mannheim) according to the manufacturer's instructions. Briefly, ˜10^4 cells/well were plated on a poly-D-lysine-coated 96-well plate and treated for various periods of times with different apoptosis-inducing agents. The cells were lysed and the nuclei and membranes were pelleted. An aliquot of the cytoplasm-containing supernatant was then transferred to a streptavidin-coated microtiter plate and incubated with anti-histone-biotin and anti-DNA-peroxidase, resulting in the formation of “sandwich” antibody complexes, i.e., (anti-DNA-peroxidase)-(nucleosomal-DNA-containing-histone) -(anti-histone-biotin)-(streptavidin-microtiter plate). Unbound antibody was removed by washing. Peroxidase substrate (i.e., ABTS) was added and nucleosomal DNA complexes quantified by spectrophotometric analysis of the colored peroxidase reaction product.
Caspase-3 Assay: Caspase-3 activity was assayed according to the following protocol. Cells plated and treated as above were washed in 1×PBS and lysed in 1×assay buffer (1 mM DTT, 1% Triton X-100, 0.5% Tween-20 in 1×PBS, pH 7.2). […] Fluorescence readings were taken on the Cytofluor II plate reader (excitation 360 nm, emission 460 nm, 6 reads/well, gain 50).

HEK293 cells = assay: Annexin V apoptotic membrane assay in SAT-reporter-transformed HEK293 cells; conditions: staurosporin, 4 hrs.
Text: A test system was constructed to evaluate SAT reporter expression and feasibility of detecting FRET signal changes in mammalian cells in microtiter assays. The human embryonic kidney-derived HEK293 cell line was chosen as a host because of its relatively high transfection efficiency, rapid growth, easy maintenance and suitability for microplate assay formats. In preliminary experiments in which HEK293 cells were transfected with pcDNA3-Emerald, transformed cells were fluorescent and there was no loss of fluorescence, or obvious detrimental effects on cell morphology or growth, in a selected pool of cells (i.e., mixed populations of cells) over the course of one month. […] Optimal conditions for transfection of HEK 293 cells with SAT-reporter plasmid were determined. Cells transfected using LIPOFECTAMINE (Life Technologies) and selected in G418 (Life Technologies) expressed full-length SAT reporter protein as determined by western analysis of transformed HEK293 cells after two weeks of in vitro selection. […] Under these conditions of treatment with staurosporin only about half of the SAT-reporter-transformed HEK293 cells in the population were apoptotic at 4 hrs. as determined using the Annexin V assay (Materials and Methods). […]

F1-1-42 cells = assay: Staurosporin-induced apoptosis in F1-1-42 SAT FRET reporter cells (FRET signal, western blot, caspase-3, morphology)
Description: Detecting Intracellular Changes in a FRET Reporter in Cells Undergoing Apoptosis: Having established that SAT reporter protein synthesized in HEK293 cells could be cleaved ex vivo, i.e., in cell lysates by trypsin (above), an initial in vivo intracellular assay was conducted using the selected F1-1-42 clonal cell line and staurosporin to induce apoptosis. […] In these experiments the F1-1-42 cells were plated at a density of 4×10^5 cells/0.5 ml in each well of a 24-well microtiter plate. After overnight incubation, apoptosis was induced by adding staurosporin to a final concentration of 5 μM, and using vehicle (0.25% DMSO) as a negative control. Assays for caspase-3 were used to confirm that apoptosis was induced. […] Subsequent testing determined that significant changes in FRET signal were first detectable at about 8 hours after addition of staurosporin and were maximal by 24 hrs post-induction.

caspase-3 [2] = assay: Caspase-3 assay in SAT-reporter-transformed HEK293 cells after apoptosis inducers; conditions: confluent HEK293, 1-5 μM staurosporin for 8 hrs.
U-138 cells = assay: FRET signal in SAT-transfected U-138 cells; conditions: pcDNA3VH-SAT transfected U-138 parental cultures
Text: Stable expression of the SAT reporter in U-138 cells was investigated by transfecting cultures with pcDNA3VH-SAT using calcium phosphate (Materials and Methods), and then selecting in medium containing G418 ([…]). […] The parental culture showing the strongest fluorescence and best growth characteristics was subcloned. Unexpectedly, the ability of the subclones to produce a staurosporin-inducible change in FRET signal was not stable, i.e., disappearing at passages 9, 11 and 13, but then reappearing at passage 16. While it was speculated that this phenomena may have resulted from some difference in expression and/or regulation of apoptosis or FRET reporter in sub-cultures of cells, these properties were not considered desirable and these SAT-transfected U-138 cell lines were discontinued in hopes that an improved reporter construct might solve the problem of irreproducibility.

F10-24-2 control cells = assay: FRET reporter control assay in F10-24-2 (SnAT) cells
Text: Transfection of pcDNA3VH-SgAT and pcDNA3VH-SnAT into U-138 cells (using methods described above) resulted initially in few colonies and FRET signal was lost in many clones during expansion, however, from among the various subclones the F9-1-13 (pcDNA3VH-SgAT transfected; ATCC No. PTA-84) and F10-24-2 (pcDNA3-SnAT transfected) subclones were eventually expanded and shown to express stable FRET signals. As desired, the FRET signal expressed in F9-1-13 decreased in response to both staurosporin and anti-Fas antibody treatment of cells, while the FRET signal expressed by the F10-24-2 control cells, (i.e., lacking a caspase substrate domain), was unaffected following staurosporin or anti-Fas antibody treatment. […] F9-1-13 therefore appeared suitable for microtiter assays, and perhaps use in HTS assays for screening to identify and select modulators of apoptosis.

CN[C@@H]1C[C@H]2O[C@@](C)([C@@H]1OC)n1c3ccccc3c3c4c(c5c6ccccc6n2c5c31)C(=O)NC4 [staurosporin]
time at which caspase-3 activity and inter-nucleosomal DNA fragmentation were maximally altered (caspase-3 [1]; 5 μM staurosporin, minimal at 4 hrs., intermediate by 8 hrs.): 16 to 24 h | inducibility of caspase-3 activity (caspase-3 [1]; 30-300 μM etoposide or 1.5-15.0 μM staurosporin, 8 hrs.): inducible with staurosporin | cells in the population apoptotic (Annexin V assay) (HEK293 cells): about half | SAT reporter cleavage by western analysis after induction (F1-1-42 cells; 5 μM staurosporin): cleavage of the SAT reporter | caspase-3 activity after induction (F1-1-42 cells; 5 μM staurosporin): caspase-3 activation | FRET signal change after induction (F1-1-42 cells; 5 μM staurosporin, 24-well plate, 4×10^5 cells/0.5 ml): concomitant decrease in FRET signal | time at which significant changes in FRET signal were first detectable (F1-1-42 cells; after addition of staurosporin): about 8 hours | time at which FRET signal changes were maximal (F1-1-42 cells; post-induction with staurosporin): ≤ 24 h | increase in caspase-3 activity over background (caspase-3 [2]): 6- to 10 fold | FRET signal change, correlated with FRET reporter cleavage in western blot (U-138 cells): induced changes in FRET signal | FRET signal response to inducer treatment (F10-24-2 control cells; reporter lacking a caspase substrate domain): unaffected | FRET reporter western blot before and after induction of apoptosis (F10-24-2 control cells; staurosporin induction): no visible difference
